Patent US20100210590A1, “COMPOSITIONS AND TREATMENTS FOR SEIZURE-RELATED DISORDERS” (NORTHWESTERN UNIVERSITY, priority 1995, published 2010)
Structures can show the parent of a compound that is named as a salt.

Legend:
[1] = Solubility (logS experimental, aqueous solubility, DMSO); format: physicochemical
[2] = system: TNF-α; assay: ELISA of hippocampal homogenates after KA-induced seizures on P15: TNF-α; format: in vivo, rat; conditions: Mzc 5 mg/kg ip at 3 and 9 hr after KA on P15; 12 hr recovery; mean±SEM
Experimental: (§1) Hippocampal homogenates were prepared by sonication in protease inhibitor cocktail (1 μg leupeptin (Sigma, St. Louis, Mo.), 0.001 M 4-dithio-L-threitol (DTT, Sigma), 0.002 M sodium orthovanadate (Sigma) and 0.001 M phenylmethanesulfonyl fluorid (PMSF, FLUKA, Switzerland) in 1 ml PBS). Total protein concentration was measured using commercially available reagents (BCA, Pierce, Rockford, Ill.).
(§2) Levels of IL-1β, IL-6, and TNF-α, were measured in hippocampal homogenates by enzyme linked immunosorbent assay using commercially available plates and reagents (ELISA; MesoScale Discovery, MSD, Gaithersburg, Md.). S100B levels were measured as described (26). Samples were analyzed in duplicates and compared with known concentrations of protein. Plates were analyzed using the SECTOR Imager 2400 (MSD).
(§3) To determine whether suppression of early cytokine increases would prevent long-term glial activation and improve neurobehavioral outcome after early-life seizures, P15 rats were administered Minozac (Mzc). […] Mzc (5 mg/kg) or diluent (saline) was administered via ip injection at 3 and 9 hr following KA injection on P15 (FIG. 7). Control animals were injected an equal volume of saline (Sal). At 12 hr, animals were sacrificed, and tissues were processed for analysis of pro-inflammatory cytokines by ELISA as above.

[3] = system: KA-induced seizures on P15; assay: Y-maze test of spontaneous alternation after KA-induced early-life seizures; format: in vivo, rat; conditions: Mzc 5 mg/kg ip at 3 and 9 hr after KA on P15; after 30 days recovery; mean±SEM
Experimental: On either postnatal day (P)15 or 45, rats were administered either KA (Ocean Produce International, Nova Scotia) or equivalent volume of vehicle, phosphate-buffered saline (PBS, pH 7.4) (2). The dose of KA on P 15 (5 mg/kg) and P45 (15 mg/kg) was based on the age-dependent difference in threshold for KA-induced seizures (22). All injections were intraperitoneal (ip).
The Y-maze test of spontaneous alternation was used to evaluate hippocampus-dependent spatial learning (26, 27). Testing began on P27 when animals were first able to decide between the left or right arm of the maze. Testing was performed by a blinded observer on alternate days until P55. Each animal started in the vertical arm of the Y-maze. If the animal selected a different arm on the second run in the maze, it was scored as alternating. The percent alternation over the duration of testing was calculated for each animal.
as §3, with “At 12 hr, animals were sacrificed, and tissues were processed for analysis of pro-inflammatory cytokines by ELISA as above.” left out

[4] = system: S100B; assay: S100B level in hippocampal homogenates after KA-induced seizures on P15; format: in vivo, rat; conditions: Mzc 5 mg/kg ip at 3 and 9 hr after KA on P15; 12 hr recovery; mean±SEM
Experimental: as §1, §2, §3

[5] = cited from earlier work
[6] = system: Alzheimer's disease mouse model; conditions: cited from earlier work
[7] = system: IL-6; assay: ELISA of hippocampal homogenates after KA-induced seizures on P15: IL-6; format: in vivo, rat; conditions: Mzc 5 mg/kg ip at 3 and 9 hr after KA on P15; 12 hr recovery; mean±SEM
Experimental: as §1, §2, §3

[8] = system: IL-1β; assay: ELISA of hippocampal homogenates after KA-induced seizures on P15: IL-1β; format: in vivo, rat; conditions: Mzc 5 mg/kg ip at 3 and 9 hr after KA on P15; 12 hr recovery; mean±SEM
Experimental: as §1, §2, §3

[9] = system: GFAP; assay: Immunohistochemical quantification of GFAP immunoreactive cells in hippocampus (glial activation); format: in vivo, rat; conditions: Mzc 5 mg/kg ip at 3 and 9 hr after KA on P15; 30 days recovery; mean±SEM
Experimental: (§4) Immunohistochemical detection of hippocampal markers of glial activation and astrocyte glutamate transporters was performed in five μm paraffin-embedded sections using Vectastain Elite ABC immunodetection kits and diaminobenzidine substrate (DAB) (Vector Laboratories, Burlingame Calif.). The following primary antibodies were used: GFAP (1:1500, mouse monoclonal, Sigma); S100B (1:1500, rabbit polyclonal, DAKO Cytomation, Carpinteria, Calif.); Ibal (1:400, goat polyclonal, Abcam, Cambridge, Mass.); FH (1:400, goat polyclonal, Quidel); β-clusterin (1:100, goat polyclonal, Santa Cruz); GLAST (1:5000 guinea pig polyclonal, Chemicon International, Temecula, Calif.) and GLT-1 (1:5000, guinea pig polyclonal, Chemicon). Control sections were incubated in normal serum or PBS in place of primary antibody. […]
(§5) Sections were examined under brightfield microscopy by two blinded observers (Nikon Eclipse E800). For GFAP, S100B, Ibal, FH, clusterin, GLAST and GLT-1 sections, the CAI, CA2, CA3, DG and PoDG were photographed at 10× magnification, and images were converted to grayscale for quantification of immunoreactive cells. The percentage of positive cells in the hippocampal regions specified was measured by thresholding for dark objects indicative of immunoreactive cells (Metamorph, Universal Imaging Corporation, Sunnyvale, Calif.). […] Changes in the morphology of immunoreactive cells were not assessed. […]

[10] = system: S100B; assay: Immunohistochemical quantification of S100B immunoreactive cells in hippocampus (glial activation); format: in vivo, rat; conditions: Mzc 5 mg/kg ip at 3 and 9 hr after KA on P15; 30 days recovery; mean±SEM
Experimental: as §4, §5

Structure (SMILES)	solubility in DMSO [1]	TNF-α level in hippocampal brain homogenates [2]	percent alternation in Y-maze [3]	S100B level in hippocampal brain homogenates [4]	CNS penetration [5]	bioavailability [5]	toxicity [5]	water solubility [5]	effect on hippocampal pro-inflammatory cytokine upregulation [6]	effect on hippocampal-dependent behavioral deficits [6]	effect on synaptic dysfunction [6]	IL-6 level in hippocampal brain homogenates [7]	IL-1β level in hippocampal brain homogenates [8]	GFAP immunoreactive cells in hippocampus [9]	S100B immunoreactive cells in hippocampus [10]
Cc1cc(-c2ccccc2)nnc1N1CCN(c2ncccn2)CC1.Cl.Cl [2-(4-(4-methyl-6-phenylpyridazin-3-yl)piperazin-1-yl)pyrimidine dihydrochloride salt]	soluble in DMSO	–	–	–	–	–	–	–	–	–	–	–	–	–	–
Cc1cc(-c2ccccc2)nnc1N1CCN(c2ncccn2)CC1 [Mzc, 2-(4-(4-methyl-6-phenylpyridazin-3-yl)piperazin-1-yl)pyrimidine dihydrochloride monohydrate]	–	98.5±3.9 % control	79.5±2.5 % alternation	89.1±9.7 % control	CNS-penetrant	bioavailable	non-toxic	water-soluble	inhibits hippocampal pro-inflammatory cytokine upregulation	attenuates hippocampal-dependent behavioral deficits	suppresses synaptic dysfunction	103.2±3.8 % control	103.7±4.6 % control	20.9±1.8 % immuno-positive cells	8.1±0.9 % immuno-positive cells
